“Also recorded” adds a separate entry of the source.
Assays:
HLA-A*0201 = biological target: T1, HLA-A*0201 (Homo sapiens, UniProt P04439, D140Y/D185E/D98H/E176V/E277Q/G131W/G231S/I119V/I121R/I166T/I218V/L300P/L318F/N151K/N90K/P208A/P217A/Q86G/Q94H/R138H/R169H/T345S); type: binding
T1 construct: Soluble MHC was dissolved in PBS containing 0.5 mg/ml bovine γ-globulin; made in house

[1] = tested on: splenocytes of WT-vaccinated HLA-A2 tg mice; type: cell-based, mouse; parameters: key to response compared with WT peptide control, mouse splenocytes: *: Lower response than WT peptide
[2] = tested on: CD8+ T cells of HLA-A2+ human donors; type: cell-based; parameters: key to response compared with WT peptide control, DC model: *: Lower response than WT peptide
HLA-A2 transgenic mice = conditions: mouse, in vivo; for IFN-γ ELISpot response after restimulation with WT peptide / IFN-γ ELISpot response after restimulation with homologous peptide: sc
[3] = tested on: […]-specific T cell clone; type: cell-based

| Substance | FP binding score, percentage inhibition of tracer peptide binding, 4h (HLA-A*0201) [%] | FP binding score, percentage inhibition of tracer peptide binding, 24h (HLA-A*0201) [%] | Mouse splenocytes (ex vivo assay), Average [1] | DC model: IFN-γ-positive CD8+ T cells, Average [2] | rank by T cell activation, mouse splenocytes [1] | other results |
| --- | --- | --- | --- | --- | --- | --- |
| G[2-AOC]LGFVFT[PRG] [G26] | 60 | 54 | 61 | 0.45 |  | rank by T cell activation, DC model [2]: Upper 3; IFN-γ ELISpot response after restimulation with WT peptide (HLA-A2 transgenic mice): do not always react to restimulation with WT peptide |
| NMLSTVLGV [NWT, reference compound] | 53 | 46 | 436 | 0.04 |  | proportion of vaccinated mice that respond (HLA-A2 transgenic mice): approximately one out of six |
| [3-PYRA]MLSTVLGV [N43] | 47 | 41 | 108 | 0.06 |  |  |
| [3-PYRA]MLSTVLG[2-AOC] [N8] | 85 | 82 | 1 | 0.01 | Lower 3 | rank by T cell activation, DC model [2]: Lower 3 |
| [3-PYRA]MYSDFHFI [F100] | 79 | 73 | 104 |  | Upper 3 | T cell (IFN-γ) response of vaccinated HLA-A2 tg mice, restimulation not specified or both (HLA-A2 transgenic mice): improved T cell responses; also recorded: higher homologous and heterologous responses; IFN-γ ELISpot response after restimulation with WT peptide (HLA-A2 transgenic mice): higher responses compared to WT-peptide vaccination; also recorded: higher IFN-γ responses than WT peptide-vaccinated mice |
| [3-THI]MLSTVLG[2-AOC] [N98] | 83 | 79 | 93 | 0.04 |  |  |
| [3-THI][2-AOC]YSDFHFI [F102] | 92 | 91 | 96 | 0.06 | Upper 3 | response compared with WT peptide control, mouse splenocytes [1]: F102 ^*; rank by T cell activation, DC model [2]: Lower 3 |
| [4-FPHE]MYSDFHFI [F105] | 86 | 78 | 62 | 0.08 |  |  |
| [4-FPHE][2-AOC]LSTVLGV [N95] | 92 | 90 | 3 | 0.07 |  |  |
| [4-PYRA]ILGFVFTL [G15] |  |  | 53 | 0.17 |  | T cell clone: percentage of IFN-γ producing T cells, Average [3]: 33.4%; rank by T cell activation, DC model [2]: Upper 3; response compared with WT peptide control, DC model [2]: G15 ^* |
| [4-pyra]ILGFVFTL [G10] |  |  | 47 | 0.14 |  | T cell clone: percentage of IFN-γ producing T cells, Average [3]: 45.4% |
| [CSME][2-AOC]LSTVLGV [N169] | 89 | 87 | 366 | 0.09 |  | rank by T cell activation, DC model [2]: Upper 3 |
| [NLE]MLSTVLGV [N52] | 54 | 46 | 341 | 0.03 |  |  |
| [NVA]MLSTVLG[2-AOC] [N15] | 71 | 65 | 3 | 0.07 | Lower 3 |  |
| [SOME][2-AOC]LSTVLGV [N92] | 84 | 81 | 380 | 0.04 | Upper 3 | response compared with WT peptide control, mouse splenocytes [1]: N92 ^*; IFN-γ ELISpot response after restimulation with WT peptide (HLA-A2 transgenic mice): did not respond to restimulation; IFN-γ ELISpot response after restimulation with homologous peptide (HLA-A2 transgenic mice): did not respond to restimulation |
| [THR-BZL]MLSTVLGV [N176] | 73 | 70 | 355 | 0.03 |  |  |
| [THR-BZL]MYSDFHFI [F142] | 80 | 77 | 79 | 0.08 |  |  |
| [am-phg]MLSTVLGV [N46] | 80 | 76 | 363 | 0.02 |  | binding score (HLA-A*0201): 81%; rank by T cell activation, DC model [2]: Lower 3; number of mice responding to WT peptide restimulation (HLA-A2 transgenic mice): no responders; number of mice responding to homologous peptide restimulation (HLA-A2 transgenic mice): four; IFN-γ ELISpot response after restimulation with WT peptide (HLA-A2 transgenic mice): reduced to zero; also recorded: do not always react to restimulation with WT peptide; IFN-γ ELISpot response after restimulation with homologous peptide (HLA-A2 transgenic mice): increased the responses compared to vaccination with WT peptide |
| [am-phg]MLSTVLG[2-AOC] [N11] | 90 | 88 | 3 | 0.03 | Lower 3 | rank by T cell activation, DC model [2]: Lower 3 |
| [am-phg]MYSDFHFI [F111] | 75 | 72 | 86 | 0.08 |  | binding score (HLA-A*0201): 72%; T cell (IFN-γ) response of vaccinated HLA-A2 tg mice, restimulation not specified or both (HLA-A2 transgenic mice): improved T cell responses; also recorded: improved immunogenicity; also recorded: higher homologous and heterologous responses; IFN-γ ELISpot response after restimulation with WT peptide (HLA-A2 transgenic mice): higher responses compared to WT-peptide vaccination; also recorded: higher IFN-γ responses than WT peptide-vaccinated mice |
| [am-phg]MYSDFHF[2-AOC] [F7] | 91 | 90 | 54 | 0.13 | Lower 3 |  |
| [am-phg][CpALA]LGFVFTL [G27] | 92 | 91 | 35 | 0.1 |  |  |
| [am-phg][NVA]YSDFHFI [F193] | 85 | 81 |  |  |  | T cell (IFN-γ) response of vaccinated HLA-A2 tg mice, restimulation not specified or both (HLA-A2 transgenic mice): lowest homologous and heterologous responses; IFN-γ ELISpot response after restimulation with WT peptide (HLA-A2 transgenic mice): only showed higher responses than WT peptide at a vaccination dose of 25 nmol |
| yILGFVFTL [G9] |  |  | 20 | 0.11 | Lower 3 | T cell clone: percentage of IFN-γ producing T cells, Average [3]: 1.1%; rank by T cell activation, T cell clone [3]: Lower 3 |

— article PMC4917206, “Chemical Modification of Influenza CD8+ T-Cell Epitopes Enhances Their Immunogenicity Regardless of Immunodominance” (PLoS ONE, 2016)
